Reference: patent publication US8143446B2, “Substituted acrylamide derivative and pharmaceutical composition comprising the same” (Daiichi Sankyo Company, Limited, priority 2005, dated 2012)

Experiments:
[1] = test system: adjuvant arthritis model rats; test: Evaluation of bone density decrease-suppressing activity and anti-arthritic activity (adjuvant arthritis model); assay type: in vivo, rat; conditions: oral 10 mg/kg once a day for 7 days from day 14 after adjuvant; for Paw edema-suppressing rate (%): hind paw volume on day 21, 8-week old female Lewis rats; for Bone density decrease-suppressing rate (%): thighbone bone density on day 21, 8-week old female Lewis rats
Procedure: In rheumatoid arthritis, not only swelling and pain caused by arthritis but also systemic bone mass decrease and articular destruction caused by a significant increase in bone resorption are observed.
The test was conducted using 8-week old female Lewis rats. Mycobacterium butyricum cells which were killed by heat were ground in an agate mortar, suspended in liquid paraffin sterilized by dry heat to a concentration of 2 mg/mL, and treated with ultrasound to prepare an adjuvant. Under ether anesthesia, rats in a control group other than a normal control group and rats in a test compound administration group were intradermally injected with 0.05 mL of this adjuvant each time (0.1 mL/rat in total) at two portions of the base of the tail. Starting from 14 days after the injection of the adjuvant, each rat was orally administered with 5 mL/kg of a test compound suspended in 0.5% MC once a day for 7 days. Similarly, the rats of the control group were administered with 0.5% MC alone. On the 21st day after the adjuvant injection, hind paw volumes were measured by using a paw edema volume determining device (MUROMACHI KIKAI, TK-101CMP). Then, the thighbone was biopsied. The thighbone was, after removing soft tissues, sufficiently fixed, dehydrated, and dried using ethanol. The bone density of the thighbone was measured with a bone density analyzer (Aloka, DOS-600 EX-IIIR). Five rats were used for each test group.
The evaluation was conducted by comparison tests with the normal control group and the control group and based on the bone density decrease-suppressing rate (%) and the paw edema-suppressing rate (%) calculated according to the following formulae: Bone density decrease-suppressing rate (%)=(1−([thighbone bone density in normal control group]−[thighbone bone density in test compound administration group])/([thighbone bone density in normal control group]−[thighbone bone density in control group]))×100 Paw edema-suppressing rate (%)=(1−([paw volume of test compound administration group]−[paw volume in normal control group])/([paw volume in control group]−[paw volume in normal control group]))×100

[2] = test system: 4-week old male Wistar rats; test: Evaluation of blood calcium concentration-decreasing activity (serum calcium after oral dosing of immature rats); assay type: in vivo, rat; conditions: serum 6 hours after administration, fasted 4-week old male Wistar rats, vs normal control group
Procedure: The blood calcium concentration in a living body is strictly controlled and constantly maintained by intestinal absorption and urinary excretion and release (bone resorption) and adhesion (bone formation) in bone tissues. […] The bone resorption-suppressing activity of compounds according to the present invention was evaluated by administering the compounds to immature rats and observing decreases in blood calcium concentration as an index of the activity.
The test was conducted using 4-week old male Wistar rats fasted for 12 to 24 hours. Each compound to be tested was suspended in 0.5% methyl cellulose (MC). The suspension was orally administered to the rats at a dose of 5 mL/kg. Similarly, rats of a normal control group were administered with 0.5% MC alone. Then, blood was drawn from rat jugular vein under ether anesthesia 6 hours after the administration of each test compound or 0.5% MC. The blood was immediately centrifuged (10000 rpm, 5 minutes) at room temperature to separate serum. The calcium concentration of each serum was measured by an autoanalyzer (JEOL, JCA-BM2250). Five rats were used for each test group.
The evaluation was conducted by a comparative test with the normal control group and based on the serum calcium concentration-decreasing rate (%) calculated according to the following formula:
Serum calcium concentration-decreasing rate (%)=(([serum calcium concentration in normal control group] - [serum calcium concentration in test compound administration group])/[serum calcium concentration in normal control group])×100.

Compound | melting point [°C] | Paw edema-suppressing rate (%) [1] [%] | Bone density decrease-suppressing rate (%) [1] [%] | Serum calcium concentration-decreasing rate (%) ([2]; administration dose 10 mg/kg) | Serum calcium concentration-decreasing rate (%) ([2]; administration dose 20 mg/kg)
CC(C)Oc1ccc(/C=C(\NC(=O)c2ccc(OCCc3ccc(N(C)C)cc3)cc2)C(=O)NCCO)cc1.Cl | 103 to 105 | – | – | – | –
CC(C)COc1ccc(C(=O)N/C(=C\c2ccc3ccccc3c2)C(=O)NCCO)cc1 [Example 2-6, N-[(Z)-1-{[(2-hydroxyethyl)amino]carbonyl}-2-(2-naphthyl)vinyl]-4-isobutoxybenzamide] | 150 to 152 | – | – | – | –
CC(C)COc1ccc(C(=O)N/C(=C\c2ccc(C(F)(F)F)nc2)C(=O)NCCO)cc1 [Example 2-16, N-{(Z)-1-{[(2-hydroxyethyl)amino]carbonyl}-2-[6-(trifluoromethyl)pyridin-3-yl]vinyl}-4-isobutoxybenzamide] | 184 to 187 | – | – | – | –
CC(C)COc1ccc(C(=O)N/C(=C\c2ccc(OC(C)C)cc2)C(=O)NCCO)cn1 [Example 2-19, N-[(Z)-1-{[(2-hydroxyethyl)amino]carbonyl}-2-(4-isopropoxyphenyl)vinyl]-6-isobutoxynicotinamide] | 74 to 76 | – | – | – | –
CC(C)COc1ccc(C(=O)N/C(=C\c2ccc(OC(C)C)cc2)C(=O)NCCO)c(F)c1 [Example 2-21, 2-fluoro-N-[(Z)-1-{[(2-hydroxyethyl)amino]carbonyl}-2-(4-isopropoxyphenyl)vinyl]-4-isobutoxybenzamide] | 51 to 54 | – | – | – | –
COc1ccc(CCOc2ccc(C(=O)N/C(=C\c3ccc(OC(F)(F)F)cc3)C(=O)NCCO)cc2)cc1 [Example 3, N-{(Z)-1-{[(2-Hydroxyethyl)amino]carbonyl}-2-[4-(trifluoromethoxy)phenyl]vinyl}-4-[2-(4-methoxyphenyl)ethoxy]benzamide] | – | 22 | 57 | – | –
COc1ccc(CCOc2ccc(C(=O)N/C(=C\c3ccc(C4CC4)cc3)C(=O)NCCO)cc2)cc1 [Example 5, N-((Z)-2-(4-Cyclopropylphenyl)-1-{[(2-hydroxyethyl)amino]carbonyl}vinyl)-4-[2-(4-methoxyphenyl)ethoxy]benzamide] | – | 25 | 54 | 27.6 | –
O=C(NCCO)/C(=C/c1ccc(C2CC2)cc1)NC(=O)c1ccc(OCCC2CC2)cc1 [Example 9, 4-(2-Cyclopropylethoxy)-N-((Z)-2-(4-cyclopropylphenyl)-1-{[(2-hydroxyethyl)amino]carbonyl}vinyl)benzamide] | – | 11 | 37 | – | 29.3
O=C(NCCO)/C(=C/c1ccc(OC(F)(F)F)cc1)NC(=O)c1ccc(OCCC2CC2)cc1 [Example 11, 4-(2-Cyclopropylethoxy)-N-{(Z)-1-{[(2-hydroxyethyl)amino]carbonyl}-2-[4-(trifluoromethoxy)phenyl]vinyl}benzamide] | – | 29 | 40 | – | 30.6
O=C(NCCO)/C(=C/c1ccc(Cl)cc1)NC(=O)c1ccc(OCCC2CC2)cc1 [Example 14, N-((Z)-2-(4-Chlorophenyl)-1-{[(2-hydroxyethyl)amino]carbonyl}vinyl)-4-(2-cyclopropylethoxy)benzamide] | – | 12 | 86 | 33.2 | –
O=C(NCCO)/C(=C/c1ccc(OC2CC2)cc1)NC(=O)c1ccc(OCCC2CC2)cc1 [Example 16, 4-(2-Cyclopropylethoxy)-N-((Z)-2-[4-(cyclopropyloxy)phenyl]-1-{[(2-hydroxyethyl)amino]carbonyl}vinyl)benzamide] | – | 35 | 70 | 27.2 | –
